Values quoted from earlier work in patent US20040258838A1, “Method for preserving wood materials using precipitated copper compounds” (priority 2003, published 2004).

Tested on: fish
Settings: essentially 1 milligram per liter

For [Cu] [copper], the “level at which copper is extremely toxic to fish” value is listed as “below 1 part per million”.
